# From patent US9757360B2, “Pharmaceutical composition comprising a ryanodine receptor antagonist for facilitating wound healing” (SZEGEDI TUDOMÁNYEGYETEM, priority 2013, dated 2017)
# Columns and labels:
# [1] = test system: microcirculation of the wound edges; assay: Intravital videomicroscopy (IVM) of the microcirculation of the wound edges; type: in vivo, SKH-1 hairless mice; settings: 100 μM topical once a day
# Description: (§1) The experiments were performed on male SKH-1 hairless mice of our own rearing (body weight: 36-44 g). Procedures and protocols were approved by the competent authorities (license number: V./145/2013.). Only healthy animals free of any type of injury were used, mice with any sign of disorders were discarded. Prior to the interventions the animals were anesthetized with a mixture of ketamine (Sigma) (90 mg/kg) and xylazine (Sigma) (25 mg/kg) administered intraperitoneally. A skin fold was formed in the dorsal region and was fixed with two symmetrical, fenestrated titanium plates (IROLA GmbH, Schonach, Germany) according to the description of Sorg et al. (Sorg et al., 2007).
# In the midline of the dorsal region two holding stitches were placed in order to form a skin fold. This skin fold was sandwiched by two symmetrical, fenestrated titanium plates. The plates were fixed with sutures, bolts and nuts. On one side of the skin fold, a circular full-thickness wound was made by removing the tissue down to muscle layer of the other side (the diameter of the wound was 4 mm while those of used for Laser-Doppler flowmetry came to 11 mm). The wound was covered with a glass coverslip incorporated into the window of the titanium frame. The glass was removed for the duration of treatments and measurements only. In the control group (n=6), the wounds were treated with 100 μL of sterile saline once a day while in the dantrolene-treated group (n=6) 100 μL of a solution containing the sodium salt of dantrolene (100 μM) was applied to the wound once a day (the salt was dissolved in sterile saline). The observation period took 20 days (according to our previous results this is the time period needed for approximately 100% closure of wounds of 4 mm).
# Intravital videomicroscopy (IVM). Microcirculation of the wound edges was monitored by means of IVM on days 4, 8 and 12. After anesthesia, 80 μL of a solution of fluorescein-isothyocyanate (FITC) labeled dextrane (2%) and also 80 μL of a solution of rhodamine-6G was administered retrobulbar. These contrast materials allow us to visualize microcirculation and leukocyte-endothelial interactions at the appropriate wavelengths. Video records of the microcirculation were evaluated off-line with Pictron IVM software. Red blood cell velocity (RBCV) was determined in the capillaries, the diameter of each vessel in the evaluated fields-of-view was measured (only diameters above 6 μm were considered) and sticking leukocytes were counted in the postcapillary venules (this parameter is relative to the area of the vessel wall and is given as cell/μm2).
# Control- and dantrolene-treated groups were compared with the Mann-Whitney test and p<0.05 was considered statistically significant.
# [2] = test system: full-thickness dermal wound; assay: Macroscopic wound closure of full-thickness dermal wounds in a dorsal skin fold chamber (photo documentation); type: in vivo, SKH-1 hairless mice; settings: for Rate of wound closure vs control group: 100 μM topical once a day
# From the text: In our experiments, we have studied the effects of dantrolene on different parameters of wound healing. SKH-1 hairless male mice were used in the experiments. Full-thickness wound was made in a dorsal skin fold. The effects of dantrolene or saline (control group) on wound healing were monitored by means of photo documentation, intravital videomicroscopy (IVM) and laser Doppler flowmetry. The experimental setup was in accordance with the model described by Sorg et al. (Sorg et al., 2007). Wounds were treated daily either with dantrolene or with saline.
# as §1
# (§2) In the midline of the dorsal region two holding stitches were placed in order to form a skin fold. This skin fold was sandwiched by two symmetrical, fenestrated titanium plates. The plates were fixed with sutures, bolts and nuts. On one side of the skin fold, a circular full-thickness wound was made by removing the tissue down to muscle layer of the other side (the diameter of the wound was 4 mm while those of used for Laser-Doppler flowmetry came to 11 mm). The wound was covered with a glass coverslip incorporated into the window of the titanium frame. The glass was removed for the duration of treatments and measurements only. […]
# Macroscopic wound closure. […] The images were evaluated with a software developed by our working group (DermAssess©). […]
# [3] = test system: full-thickness dermal wound; assay: Histology of excised wounds (epithelialization zone, dermal regeneration); type: in vivo, SKH-1 hairless mice; settings: day 4; 100 μM topical once a day
# Description: as §1
# In the midline of the dorsal region two holding stitches were placed in order to form a skin fold. This skin fold was sandwiched by two symmetrical, fenestrated titanium plates. The plates were fixed with sutures, bolts and nuts. […]
# Histology. […] Zone of epithelialization was defined as the extension of epithelial regeneration measured from the wound edges and given as percentage relative to the initial diameter of the wound. Dermal regeneration was determined, too (thickness of dermal connective tissue was measured within the wound area and was given as percentage relative to that of determined in the intact skin). […]
# [4] = test system: blood flow of the wound area; assay: Laser-Doppler flowmetry of the wound area; type: in vivo, SKH-1 hairless mice; settings: day 1 after wound creation; 200 μL dantrolene solution, measured 10 minutes later; 11 mm wound
# Description: as §1, §2
# [5] = test system: epidermal barrier function; settings: cited from earlier work
smiles,measurement,setting,value
O=C1CN(/N=C/c2ccc(-c3ccc([N+](=O)[O-])cc3)o2)C(O)=N1 [dantrolene],"Number of sticking leukocytes in the postcapillary venules, difference vs control",[1]; day 12,not statistically significant
same,Vessel diameters at the wound edges vs control group,"[1]; days 4, 8 and 12 (corresponding times)",considerably higher
same,Red blood cell velocity (RBCV) in the capillaries vs control group,"[1]; days 4, 8 and 12",higher
same,Number of sticking leukocytes in the postcapillary venules vs control,[1]; days 4 and 8,significantly decreased
same,Macroscopic wound closure (decrease in wound area relative to baseline),"[2]; by day 20, 100 μL of 100 μM dantrolene sodium salt solution on the wound once a day, 4 mm wound",~100%
same,Rate of wound closure vs control group,[2]; day 16,no difference
same,Rate of wound closure vs control group,"[2]; days 4, 8 and 12, p<0.05 vs saline control",significantly higher
same,Dermal regeneration vs control group,[3],more expressed
same,Extension of epithelialization zone vs control,[3],more extended
same,Blood flow in the wound area after vs before dantrolene treatment,[4],significant elevation
same,Barrier regeneration,"[5]; local application, after removal of the uppermost layer of the epidermis",accelerates
same,Transepidermal water loss,[5]; mice with barrier function impaired after tape stripping of the upper epidermis,ameliorate
